The nature of this data set: toxicity of isoprenoids (compatibility with the body). The following applies: in concentrations of 10 μmol/l. An excerpt:
Thus, for example, lycopene and ubichinon are already toxic in concentrations of 10 μmol/l. Squalene, on the other hand, is not toxic, even in concentrations of 100 μmol/l.

Take ubichinon: the toxicity result is given as “toxic”.

Values taken from patent publication US8486434B2, “Medical implant containing an antioxidative substance” (Biotronik VI Patent AG, priority 2009, dated 2013).
